Experimental data taken from ChEMBL document CHEMBL4706484, “Apigenin-rivastigmine hybrids as multi-target-directed liagnds for the treatment of Alzheimer's disease” (Eur J Med Chem, 2020).
The source made the active and inactive calls. The calls are words filed in the database; no cut-off is given here.

Assays:
[1] = Antioxidant activity of compound assessed as trolox equivalent antioxidant capacity by ORAC-FL assay; assay type: functional
Acetylcholinesterase [2] = target: T1, Acetylcholinesterase (Rattus norvegicus, UniProt P37136); experiment: Inhibition of rat cortex AChE using acetylthiocholine iodide as substrate measured after 15 mins by Ellman's method; assay type: tissue-based
T1 sequence (P37136 whole entry): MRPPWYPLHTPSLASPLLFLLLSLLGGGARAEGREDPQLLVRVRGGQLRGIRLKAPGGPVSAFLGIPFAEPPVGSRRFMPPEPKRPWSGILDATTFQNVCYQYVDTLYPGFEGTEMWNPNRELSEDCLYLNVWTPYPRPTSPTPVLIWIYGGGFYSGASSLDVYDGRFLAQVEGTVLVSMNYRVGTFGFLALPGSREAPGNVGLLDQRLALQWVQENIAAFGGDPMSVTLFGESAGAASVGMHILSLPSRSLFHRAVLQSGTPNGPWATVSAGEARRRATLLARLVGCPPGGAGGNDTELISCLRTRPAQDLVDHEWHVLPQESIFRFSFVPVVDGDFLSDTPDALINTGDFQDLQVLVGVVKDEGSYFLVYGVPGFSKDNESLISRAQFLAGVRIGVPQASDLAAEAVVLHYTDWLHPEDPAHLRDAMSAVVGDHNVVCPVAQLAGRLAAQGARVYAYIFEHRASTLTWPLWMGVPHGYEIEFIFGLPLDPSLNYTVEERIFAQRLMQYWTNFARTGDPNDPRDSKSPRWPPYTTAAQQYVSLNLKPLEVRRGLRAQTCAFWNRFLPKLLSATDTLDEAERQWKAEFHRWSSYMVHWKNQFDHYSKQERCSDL

Butyrylcholinesterase = Butyrylcholinesterase (Rattus norvegicus, UniProt Q9JKC1); experiment: Inhibition of rat serum BChE using acetylthiocholine iodide as substrate measured after 15 mins by Ellman's method; assay type: cell-free
[3] = target: Amyloid-beta precursor protein (Homo sapiens) (UniProt P05067); experiment: Inhibition of self-induced amyloid beta (1 to 42) (unknown origin) aggregation at 25 uM by ThT fluorescence assay relative to control
[4] = Inhibition of copper-induced amyloid beta (1 to 42) (unknown origin) aggregation at 25 uM by ThT fluorescence assay relative to control
[5] = Disaggregation of Copper-induced amyloid beta (1 to 42) (unknown origin) preformed fibrils at 25 uM by ThT fluorescence assay relative to control
[6] = Inhibition of copper-induced amyloid beta (1 to 42) (unknown origin) aggregation measured after 24 hrs by TEM analysis
[7] = Disaggregation of Copper-induced amyloid beta (1 to 42) (unknown origin) preformed fibrils measured after 48 hrs by TEM analysis
Acetylcholinesterase [8] = target: T2, Acetylcholinesterase (Homo sapiens, UniProt P22303); experiment: Inhibition of human erythrocytes AChE using acetylthiocholine iodide as substrate measured after 15 mins by Ellman's method; assay type: tissue-based, Erythrocyte
Cholinesterase [9] = target: T3, Cholinesterase (Homo sapiens, UniProt P06276); experiment: Inhibition of human serum BChE using acetylthiocholine iodide as substrate measured after 15 mins by Ellman's method; assay type: cell-free
[10] = target: Amyloid-beta precursor protein (Homo sapiens) (UniProt P05067); experiment: Disaggregation of self-induced amyloid beta (1 to 42) (unknown origin) preformed fibrils at 25 uM by ThT fluorescence assay relative to control
[11] = target: Amyloid-beta precursor protein (Homo sapiens) (UniProt P05067); experiment: Inhibition of self-induced amyloid beta (1 to 42) (unknown origin) aggregation at 25 uM measured after 24 hrs by TEM analysis
[12] = target: Amyloid-beta precursor protein (Homo sapiens) (UniProt P05067); experiment: Disaggregation of self-induced amyloid beta (1 to 42) (unknown origin) preformed fibrils at 25 uM measured after 48 hrs by TEM analysis
PC-12 [13] = experiment: Cytotoxicity against rat PC-12 cells assessed as reduction in cell viability <= 100 uM measured after 48 hrs by MTT assay; assay type: cell-based; details: pc-12, 48 h
[14] = Metal chelating activity assessed as Fe2+-compound complex formation at 37.5 uM in presence of 37.5 uM FeSO4 by UV-Vis spectrophotometric analysis
[15] = Metal chelating activity assessed as Zn2+-compound complex formation at 37.5 uM in presence of 37.5 uM ZnCl2 by UV-Vis spectrophotometric analysis
[16] = Metal chelating activity assessed as Cu2+-compound complex formation at 37.5 uM in presence of 37.5 uM CuCl2 by UV-Vis spectroscopic analysis
[17] = Metal chelating activity assessed as Al3+-compound complex formation at 37.5 uM in presence of 37.5 uM AlCl3 by UV-Vis spectrophotometric analysis
[18] = Cytotoxicity against human L02 cells assessed as cell viability at 6.25 uM measured after 72 hrs by MTT assay relative to control; assay type: cell-based; details: read-out: Activity
[19] = Cytotoxicity against human L02 cells assessed as cell viability at 12.5 uM measured after 72 hrs by MTT assay relative to control; assay type: cell-based; details: read-out: Activity
[20] = Cytotoxicity against human L02 cells assessed as cell viability at 25 uM measured after 72 hrs by MTT assay relative to control; assay type: cell-based; details: read-out: Activity
[21] = Cytotoxicity against human L02 cells assessed as cell viability at 50 uM measured after 72 hrs by MTT assay relative to control; assay type: cell-based; details: read-out: Activity
L02 = experiment: Hepatoprotective activity H2O2-induced cell injury in human L02 cells assessed as cell viability at 10 uM measured after 48 hrs by MTT assay (reference value: 56.89 %); assay type: functional; details: read-out: Activity
[22] = Permeability of the compound in PBS/EtOH (70:30) at 100 ug/ml by PAMPA-BBB assay; assay type: ADME; details: dose 100 µg/ml, read-out: permeability
[23] = Drug metabolism in rat liver microsomes assessed as metabolite formation by UPLC-MS/MS analysis; assay type: ADME, Microsome
[24] = Drug metabolism in human liver microsomes assessed as metabolite formation by UPLC-MS/MS analysis; assay type: ADME, Microsome
[25] = Drug metabolism in rat intestine assessed as metabolite formation by UPLC-MS/MS analysis; assay type: ADME, tissue-based
Cholinesterase [26] = target: T3, Cholinesterase; experiment: Pseudo-irreversible inhibition of human serum BChE assessed as enzyme recovery activity at IC50 using diluted compound relative to control; assay type: cell-free; design: scale not given: the % may be the effect or the level left
Cholinesterase [27] = target: T3, Cholinesterase; experiment: Pseudo-irreversible inhibition of human serum BChE assessed as enzyme recovery activity at 0.1 times IC50 using diluted compound relative to control; assay type: cell-free; design: scale not given: the % may be the effect or the level left
Acetylcholinesterase [28] = target: T2, Acetylcholinesterase; experiment: Pseudo-irreversible inhibition of human erythrocytes AChE assessed as enzyme recovery activity at 0.1 times IC50 measured at 120 mins using diluted compound relative to control; assay type: tissue-based; design: scale not given: the % may be the effect or the level left; details: Erythrocyte
Cholinesterase [29] = target: T3, Cholinesterase; experiment: Pseudo-irreversible inhibition of human serum BChE assessed as enzyme recovery activity at 0.1 times IC50 measured immediately using diluted compound; assay type: cell-free; design: scale not given: the % may be the effect or the level left
Mus musculus [30] = experiment: Cognitive enhancing effect in scopolamine-induced Kunming mouse model of memory impairment assessed as effect on total arm entries at 6 mg/kg by Y-maze test; assay type: functional, organism-based
Mus musculus [31] = experiment: Reversal of scopolamine-induced Kunming mouse model of memory impairment assessed as spontaneous alteration at 6 mg/kg by Y-maze test (reference value: 41.6 %); assay type: functional
PC-12 [32] = experiment: Neuroprotective activity against H2O2-induced cell injury in rat PC-12 cells assessed as increase in cell viability causing decrease in LDH content preincubated for 2 hrs followed by H2O2 addition and measured after 24 hrs by LDH assay; assay type: functional, cell-based; details: dose 5-10 µM, time 26.0 hrs
PC-12 [33] = experiment: Neuroprotective activity against H2O2-induced cell injury in rat PC12 cells assessed as cell viability preincubated for 2 hrs followed by H2O2 addition and measured after 24 hrs by MTT assay (reference value: 53.8 %); assay type: functional; details: time 26 hrs
Cholinesterase [34] = target: T3, Cholinesterase; experiment: Pseudo-irreversible inhibition of human serum BChE assessed as enzyme recovery activity at IC50 using undiluted compound relative to control; assay type: cell-free; design: scale not given: the % may be the effect or the level left
Danio rerio [35] = organism: Danio rerio; experiment: Antialzheimer activity against 3 dpf zebrafish model of AlCl3-induced AD assessed as change in motility distance at 8 uM (reference value: 5204 mm); assay type: functional
Danio rerio [36] = organism: Danio rerio; experiment: Antialzheimer activity against 3 dpf zebrafish model of AlCl3-induced AD assessed as efficacy on motility distance at 8 uM relative to control; assay type: functional
Danio rerio [37] = organism: Danio rerio; experiment: Antialzheimer activity against 3 dpf zebrafish model of AlCl3-induced AD assessed as motility by measuring change in speed at 8 uM (reference value: 1.05 mm/s); assay type: functional
Danio rerio [38] = organism: Danio rerio; experiment: Antialzheimer activity against 3 dpf zebrafish model of AlCl3-induced AD assessed as efficacy on speed change at 8 uM relative to control; assay type: functional

T3 sequence (P06276 whole entry): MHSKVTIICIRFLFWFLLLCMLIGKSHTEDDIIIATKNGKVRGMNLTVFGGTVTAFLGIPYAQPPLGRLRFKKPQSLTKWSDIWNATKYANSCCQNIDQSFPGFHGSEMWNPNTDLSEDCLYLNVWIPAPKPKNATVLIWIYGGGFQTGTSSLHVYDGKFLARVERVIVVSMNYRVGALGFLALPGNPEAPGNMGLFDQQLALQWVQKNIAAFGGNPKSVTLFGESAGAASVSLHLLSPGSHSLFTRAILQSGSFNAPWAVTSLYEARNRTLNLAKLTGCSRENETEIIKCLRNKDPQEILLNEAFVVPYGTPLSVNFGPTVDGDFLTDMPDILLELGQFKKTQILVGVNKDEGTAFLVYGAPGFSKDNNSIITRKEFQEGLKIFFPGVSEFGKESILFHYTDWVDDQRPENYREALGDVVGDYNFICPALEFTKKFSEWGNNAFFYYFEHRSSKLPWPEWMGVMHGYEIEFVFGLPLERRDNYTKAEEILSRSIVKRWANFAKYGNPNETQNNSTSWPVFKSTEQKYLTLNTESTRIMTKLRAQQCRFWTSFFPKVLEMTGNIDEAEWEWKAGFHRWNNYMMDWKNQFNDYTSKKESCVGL
Butyrylcholinesterase, sequence (Q9JKC1 whole entry): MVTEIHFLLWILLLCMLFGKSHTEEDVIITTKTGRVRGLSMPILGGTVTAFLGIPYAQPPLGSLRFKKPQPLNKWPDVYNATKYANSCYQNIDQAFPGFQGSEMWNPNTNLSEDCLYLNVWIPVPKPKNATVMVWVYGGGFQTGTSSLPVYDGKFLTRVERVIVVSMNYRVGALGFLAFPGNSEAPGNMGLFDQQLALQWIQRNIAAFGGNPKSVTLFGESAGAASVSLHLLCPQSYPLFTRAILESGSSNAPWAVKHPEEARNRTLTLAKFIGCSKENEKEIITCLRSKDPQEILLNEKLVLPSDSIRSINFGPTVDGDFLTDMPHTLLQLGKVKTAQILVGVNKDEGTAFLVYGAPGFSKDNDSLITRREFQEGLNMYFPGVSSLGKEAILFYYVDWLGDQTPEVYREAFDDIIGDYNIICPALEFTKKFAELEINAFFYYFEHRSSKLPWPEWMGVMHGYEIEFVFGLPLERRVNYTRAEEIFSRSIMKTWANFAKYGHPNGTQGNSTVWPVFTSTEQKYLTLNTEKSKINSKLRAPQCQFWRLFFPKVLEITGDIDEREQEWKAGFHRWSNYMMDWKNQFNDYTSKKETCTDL
T2 sequence (P22303 whole entry): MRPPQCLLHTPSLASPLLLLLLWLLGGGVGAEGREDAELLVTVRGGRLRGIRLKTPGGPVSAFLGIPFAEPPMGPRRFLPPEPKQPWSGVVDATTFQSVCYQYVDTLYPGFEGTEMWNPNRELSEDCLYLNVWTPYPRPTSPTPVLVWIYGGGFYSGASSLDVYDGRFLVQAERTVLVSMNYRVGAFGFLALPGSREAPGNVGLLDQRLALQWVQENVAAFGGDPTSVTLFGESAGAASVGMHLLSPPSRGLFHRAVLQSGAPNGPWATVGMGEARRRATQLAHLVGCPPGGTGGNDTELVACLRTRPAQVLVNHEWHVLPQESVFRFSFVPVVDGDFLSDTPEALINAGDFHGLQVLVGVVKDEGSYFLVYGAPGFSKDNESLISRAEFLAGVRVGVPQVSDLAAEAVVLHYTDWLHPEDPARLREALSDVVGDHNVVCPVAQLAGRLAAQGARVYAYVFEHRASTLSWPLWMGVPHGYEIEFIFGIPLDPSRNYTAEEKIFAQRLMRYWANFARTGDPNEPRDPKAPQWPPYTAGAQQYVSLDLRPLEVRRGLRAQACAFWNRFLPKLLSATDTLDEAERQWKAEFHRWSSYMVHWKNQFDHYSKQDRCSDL
Amyloid-beta precursor protein (Homo sapiens), sequence (P05067 whole entry): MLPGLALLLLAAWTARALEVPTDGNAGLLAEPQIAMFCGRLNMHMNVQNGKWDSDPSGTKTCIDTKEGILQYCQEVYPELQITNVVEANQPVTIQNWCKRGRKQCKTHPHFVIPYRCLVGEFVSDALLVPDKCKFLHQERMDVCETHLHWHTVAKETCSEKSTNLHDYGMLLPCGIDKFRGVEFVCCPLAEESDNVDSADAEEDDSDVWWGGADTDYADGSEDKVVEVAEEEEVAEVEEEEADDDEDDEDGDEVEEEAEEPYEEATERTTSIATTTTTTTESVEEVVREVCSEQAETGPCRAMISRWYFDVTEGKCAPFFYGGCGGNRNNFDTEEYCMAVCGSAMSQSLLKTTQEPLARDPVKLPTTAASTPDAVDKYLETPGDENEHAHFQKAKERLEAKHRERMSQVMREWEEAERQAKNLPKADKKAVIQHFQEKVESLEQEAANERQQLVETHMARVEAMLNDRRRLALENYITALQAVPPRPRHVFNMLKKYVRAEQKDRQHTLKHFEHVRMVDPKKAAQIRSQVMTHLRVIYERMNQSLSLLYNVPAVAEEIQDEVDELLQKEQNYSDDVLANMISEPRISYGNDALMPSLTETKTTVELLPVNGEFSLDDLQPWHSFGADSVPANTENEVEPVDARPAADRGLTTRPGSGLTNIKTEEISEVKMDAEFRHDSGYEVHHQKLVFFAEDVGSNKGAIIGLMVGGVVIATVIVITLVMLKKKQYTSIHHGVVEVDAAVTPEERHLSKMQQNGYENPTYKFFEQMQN

Compound | Activity [1] | IC50 (Acetylcholinesterase [2]) | IC50 (Butyrylcholinesterase) | inhibition [3] | other results
O=C(Oc1ccc(-c2cc(=O)c3c(O)cc(OC(=O)N4CCOCC4)cc3o2)cc1)N1CCOCC1 | 1.1 equiv | 11.5 µM | 18.6 µM | 71.5% | –
COc1cc(/C=C/C(=O)CC(=O)/C=C/c2ccc(O)c(OC)c2)ccc1O | – | – | – | – | inhibition [4]: 53.6%; Activity [5]: 56.1%; inhibition [6]: Active; Activity [7]: Active
CON(C)C(=O)Oc1ccc(-c2cc(=O)c3c(OC(=O)N(C)OC)cc(OC(=O)N(C)OC)cc3o2)cc1 | 0.2 equiv | 6 µM | 18.2 µM | 36% | IC50 (Acetylcholinesterase [8]): 12.7 µM; IC50 (Cholinesterase [9]): 24.3 µM
O=C(Oc1ccc(-c2cc(=O)c3c(O)cc(OC(=O)N4CCCC4)cc3o2)cc1)N1CCCC1 | 1.2 equiv | 13.7 µM | 26.9 µM | 73.7% | –
CCN(CC)C(=O)Oc1ccc(-c2cc(=O)c3c(O)cc(OC(=O)N(CC)CC)cc3o2)cc1 | 1.2 equiv | 7.8 µM | 16.4 µM | 77.8% | –
CN(C)C(=O)Oc1ccc(-c2cc(=O)c3c(O)cc(OC(=O)N(C)C)cc3o2)cc1 | 1.1 equiv | 9.2 µM | 23.7 µM | 79.2% | –
CCN(C)C(=O)Oc1ccc(-c2cc(=O)c3c(OC(=O)N(C)CC)cc(OC(=O)N(C)CC)cc3o2)cc1 | 0.1 equiv | 5.1 µM | 16.2 µM | 35.1% | IC50 (Acetylcholinesterase [8]): 9.2 µM; IC50 (Cholinesterase [9]): 19.5 µM; Activity [10]: 40.6%; inhibition [11]: Active; Activity [12]: Active; Activity (PC-12 [13]): Non-Toxic; Activity [14]: inactive; Activity [15]: inactive; Activity [16]: inactive; Activity [17]: inactive; viability at 72 h, 6.25 µM [18]: 98%; viability at 72 h, 12.5 µM [19]: 98.5%; viability at 72 h, 25 µM [20]: 89.8%; viability at 72 h, 50 µM [21]: 69.2%; viability at 10 µM (L02): 62.7%; Papp at 100 ug/ml [22]: 19.2 ×10⁻⁶ cm/s; Drug metabolism [23]: Metabolite_Detected; Drug metabolism [24]: Metabolite_Detected; Drug metabolism [25]: Metabolite_Detected
O=c1cc(-c2ccc(O)cc2)oc2cc(O)cc(O)c12 [APIGENIN] | 5.2 equiv | > 500 µM | > 500 µM | – | Papp at 100 ug/ml [22]: 1.68 ×10⁻⁶ cm/s
CCN(C)C(=O)Oc1cccc([C@H](C)N(C)C)c1 [RIVASTIGMINE] | – | – | – | – | Activity (Cholinesterase [26]): 58.3%; Activity (Cholinesterase [27]): 43.2%; Activity (Acetylcholinesterase [28]): 81.4%; Activity (Cholinesterase [29]): 43.2%; Activity (Mus musculus [30]): inactive; Activity (Mus musculus [31]): 64.6%
Cc1c(C)c2c(c(C)c1O)CCC(C)(C(=O)O)O2 (stereo not given) [TROLOX] | – | – | – | – | Activity (PC-12 [32]): Active; Activity (PC-12 [33]): 68.8%
COc1cc2c(cc1OC)C(=O)C(CC1CCN(Cc3ccccc3)CC1)C2 (stereo not given) [DONEPEZIL] | – | – | – | – | Activity (Cholinesterase [27]): 60.3%; Activity (Cholinesterase [34]): 49.6%; Activity (Danio rerio [35]): 6361 mm; Efficacy (Danio rerio [36]): 55%; Activity (Danio rerio [37]): 1.91 millimeter/sec; Efficacy (Danio rerio [38]): 66%
CON(C)C(=O)Oc1ccc(-c2cc(=O)c3c(O)cc(OC(=O)N(C)OC)cc3o2)cc1 | 1.1 equiv | 6.8 µM | 17.2 µM | 76.8% | IC50 (Acetylcholinesterase [8]): 10.2 µM; IC50 (Cholinesterase [9]): 22.6 µM
O=C(Oc1ccc(-c2cc(=O)c3c(OC(=O)N4CCOCC4)cc(OC(=O)N4CCOCC4)cc3o2)cc1)N1CCOCC1 | 0.2 equiv | 10.2 µM | 23.8 µM | 31.2% | –
CN(C)C(=O)Oc1ccc(-c2cc(=O)c3c(OC(=O)N(C)C)cc(OC(=O)N(C)C)cc3o2)cc1 | 0.2 equiv | 8.3 µM | 23.1 µM | 38.3% | –
O=C(Oc1ccc(-c2cc(=O)c3c(O)cc(OC(=O)N(c4ccccc4)c4ccccc4)cc3o2)cc1)N(c1ccccc1)c1ccccc1 | 1 equiv | 31.9 µM | 37.6 µM | 70.9% | –
